Values joined by “and” are separate entries in the source; they are usually repeats but may differ in a detail not shown here. Equal values may be shown once. Where a name gives a salt, the structure may show the parent alone.
Columns and labels:
[1] = Long-term oral toxicity in mice, effect on blood cells; format: in vivo, mouse; details: ICR mice; for mortality rate / weight reduced compared with the control group: oral once a day, to the 40th day
Experimental: Study on the long-term oral toxicity in mice was performed with compound 77 of the present invention as a representative example.
Procedure: 6-week-old ICR mice purchased from Shanghai Sippr-BK Experimental Animal Co., Ltd. were selected with half males and half females, and the animals were randomly divided with 6 mice each group. The test and control groups were orally given once a day for 40 consecutive days, respectively. The body weight and physiological and pathological features of the mice were observed and recorded every day. The drug doses of the test group were 500 mg/kg, 350 mg/kg, and 250 mg/kg of the methanesulfonate of compound 77 in 20% HP-β-CD clear aqueous solution, respectively (the formulation method was the same as that of the test example 10), and the control group was the 20% HP-β-CD aqueous solution.

CYP3A4-M = target: T1, CYP3A4-M (Homo sapiens, UniProt P08684); assay: P450 enzyme inhibition, CYP3A4-M (Midazolam); format: in vitro ADME; details: human liver microsomes
T1 construct: human liver microsomes (BD Gentest) (0.5 mg/mL); tissue BD Gentest; host or cells: human liver microsomes
T1 sequence (P08684 whole entry): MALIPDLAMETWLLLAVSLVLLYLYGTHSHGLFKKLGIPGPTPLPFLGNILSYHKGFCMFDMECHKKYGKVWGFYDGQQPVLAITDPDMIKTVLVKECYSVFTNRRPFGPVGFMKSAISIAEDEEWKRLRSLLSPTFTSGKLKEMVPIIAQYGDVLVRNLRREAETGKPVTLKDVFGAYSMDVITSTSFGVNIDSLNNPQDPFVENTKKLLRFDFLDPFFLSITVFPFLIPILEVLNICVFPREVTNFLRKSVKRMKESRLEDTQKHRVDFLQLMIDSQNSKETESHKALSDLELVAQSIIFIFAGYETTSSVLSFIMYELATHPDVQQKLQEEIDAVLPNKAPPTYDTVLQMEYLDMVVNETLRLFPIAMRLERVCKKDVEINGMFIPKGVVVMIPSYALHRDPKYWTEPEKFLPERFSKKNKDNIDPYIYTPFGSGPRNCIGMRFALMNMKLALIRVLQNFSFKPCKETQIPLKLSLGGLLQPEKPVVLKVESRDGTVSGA
Experimental: Eight cytochrome p450 enzyme inhibition reactions of human liver microsomes were performed using compound 77 of the present invention as a representative example.
The main reaction systems and processes: in 37° C. water bath, the test compounds (7 concentrations, 0, 0.25, 0.5, 5, 10, 25, and 50 uM; the final methanol concentration was 1% in the system), human liver microsomes (BD Gentest) (0.5 mg/mL) and reducing coenzyme II (Roche 10621706001) (1 mg/mL) and the corresponding cytochrome p450 enzyme probe substrate were co-incubated for 5 to 20 minutes. Among them, (1) the probe substrate for CYP1A2 was Phenacetin ([…]) (Sigma), and the selective inhibitor alpha-naphthoflavone (2 uM) (Sigma) was for parallel detection as positive control, and they were incubated for 20 minutes. (2) The probe substrate for CYP2b6 was Bupropion (40 uM) (Sigma) and the selective inhibitor Ticlopidine (10 uM) (Sigma) was for parallel detection as positive control, and they were incubated for 20 minutes. (3) The probe substrate of CYP2C8 was Amodiaquine (1 uM) (Sigma), and the selective inhibitor Montelukast (10 uM) (Sigma) was for parallel detection as positive control, and they were incubated for 20 minutes. (4) The probe substrate for CYP2C9 was Diclofenac (2.5 uM) (Sigma), and the selective inhibitor Sulphaphenazole (10 uM) (Sigma) was for parallel detection as positive control, and they were incubated for 20 minutes. (5) The probe substrate for CYP2C19 was Mephenytoin (40 uM) (Sigma), and the selective inhibitor Ticlopidine (10 uM) (Sigma) was for parallel detection as positive control, and they were incubated for 20 minutes. (6) The probe substrate for CYP2D6 was Dextromethorphan (5 uM) (Sigma), and the selective inhibitor Quinidine (10 uM) (Sigma) was for parallel detection as positive control, and they were incubated for 20 minutes. (7) The probe substrates for CYP3A4-T and CYP3A4-M were Testosterone (5 uM) (Sigma) and Midazolam (5 uM) (Sigma), respectively, and the selective inhibitor was Ketoconazole (1 uM) (Sigma), they were detected in parallel as positive control, and incubated for 5 minutes. The reaction system was quenched by adding methanol containing the corresponding internal standard. The internal standard compound was Tolbutamide (Sigma). The concentration of the corresponding metabolites was determined by LC/MS/MS. For the data analysis, the decrease in peak area of the metabolite of the sample after addition of compound 77 relative to the peak area of the metabolite of the solvent control sample was used to calculate the IC50 (concentration of the test substance at 50% inhibition). The percentages of peak areas of metabolites of CYP1A2, CYP2B6, CYP2C8, CYP2C9, 15CYP2C19, CYP2D6, CYP3A4-T, and CYP3A4-M probe substrates after addition of different concentrations of compound 77 and selective inhibitors relative to the solvent control peak areas were shown in the Table 7.

rat plasma protein = assay: Binding rate to plasma protein of rats (dialysis method); format: in vitro ADME
Experimental: The binding rate of compound 77 of the present invention to plasma protein at a rat plasma concentration of 2 uM was evaluated by dialysis method.
Procedure: The DMSO stock solution of compound 77 (10 mM) or the positive control propranolol (USP) was added to 500 uL of blank plasma. The final concentration of test substance in the plasma was 2 uM, and the final concentration of the positive control was 1 uM, in triplicate. 300 uL of prepared plasma samples was added to the plasma chamber, and 500 uL of dialysis buffer was added to the buffer chamber (phosphate buffer solution PBS contained 100 mM sodium phosphate and 150 mM sodium chloride, PH 7.2), sealed, and incubated for 4 h while shaking at 100 rpm, 37° C. After incubation, 50 uL sample was taken from the plasma chamber and buffer chamber, and 50 uL of PBS was added to plasma chamber samples, and 50 uL of blank plasma was added to the buffer chamber samples. Immediately, 3-fold methanol solution containing internal standard was added, to precipitate plasma protein. After centrifugation, the supernatant was taken for LC/MS/MS analysis. The plasma protein binding rate was calculated according to the following formula: % free state=(peak area ratio in the buffer chamber/the peak area ratio in the plasma chamber)×%, % binding state=100%−% free state.

[2] = oral once a day for 40 days, 250-500 mg/kg

Structure (SMILES)	effect on the number of other blood cells [1, 2]	reticulocytes decreased by [1, 2]	mortality rate ([1]; 250 mg/kg)	weight reduced compared with the control group ([1]; 250 mg/kg)	mortality rate ([1]; 350 mg/kg)	weight reduced compared with the control group ([1]; 350 mg/kg)	mortality rate ([1]; 500 mg/kg)	weight reduced compared with the control group ([1]; 500 mg/kg)	CYP3A4M Remaining % (CYP3A4-M; Concentration 0.25 uM)	CYP3A4M Remaining % (CYP3A4-M; Concentration 0.5 uM)	CYP3A4M Remaining % (CYP3A4-M; Concentration 5 uM)	CYP3A4M Remaining % (CYP3A4-M; Concentration 10 uM)	CYP3A4M Remaining % (CYP3A4-M; Concentration 25 uM)	CYP3A4M Remaining % (CYP3A4-M; Concentration 50 uM)	inhibitory effect on CYP3A4-M (CYP3A4-M; Concentration 50 uM)	Mean Binding Rate (rat plasma protein; Rats, concentration 2 uM)	Binding Rate (rat plasma protein; Rats, concentration 2 uM, single replicates)	binding rate to the rat plasma protein (rat plasma protein; dialysis, 4 h, 37° C., test substance 2 uM, positive control 1 uM)
COCCOc1ccc2c(c1)ncn2-c1ccc(NC(=O)Nc2cc(C(C)(C)C)n[nH]2)cc1 [Compound 77 Mesylate, 1-(5-tert-butyl-2H-pyrazol-3-yl)-3-{4-[5-(2-methoxyl-ethoxyl)-benzimidazol-1-yl]-phenyl}-urea]	no significant effect	10%-30%	0%	8.2%	16.7%	23.1%	66.7%	34.7%	–	–	–	–	–	–	–	–	–	–
COCCOc1ccc2c(c1)ncn2-c1ccc(NC(=O)Nc2cc(C(C)(C)C)n[nH]2)cc1 [Compound 77, 1-(5-tert-butyl-2H-pyrazol-3-yl)-3-{4-[5-(2-methoxyl-ethoxyl)-benzimidazol-1-yl]-phenyl}-urea]	–	–	–	–	–	–	–	–	105.7%	105.7%	105.0%	97.3%	97.2%	84.0%	no significant inhibitory effect	99.54%	99.46% and 99.58% and 99.60%	99.54%
